Measured values published in paper PMC7754785 (ACS Omega, 2020).
Several values for one entry are separate records, joined by “and”; a condition that tells them apart may be missing. Identical values can stand only once.

Key:
Mpro [1] = target: T1, Mpro (Severe acute respiratory syndrome coronavirus 2, UniProt P0DTD1); settings: previous computational studies in our lab; cited from earlier work
Mpro from SARS CoV-2 = Mpro from SARS CoV-2 (Severe acute respiratory syndrome coronavirus 2, UniProt P0DTD1); assay: Surface plasmon resonance binding to immobilized Mpro; settings: dissociation constant KD, SPR, Mpro immobilized on CM-5 chip; KD = koff/kon
Mpro [2] = target: T1, Mpro; assay: Universal protease activity assay with casein as substrate; type: biochemical, SARS-CoV-2; settings: IC50, 10 μM Mpro, 150 μM casein, phosphate buffer pH 7.5, 37 °C
Mpro [3] = target: T1, Mpro; settings: previous computational studies in our lab; cited from earlier work; remark: listed apart in the source

| Structure (SMILES) | docking score (Mpro [1]) [kcal/mol] | Kd (Mpro from SARS CoV-2) | IC50 (Mpro [2]) [µM] | MM-PBSA binding free energy (Mpro [3]) [kcal/mol] |
| --- | --- | --- | --- | --- |
| CSCCNc1nc(SCCC(F)(F)F)nc2c1ncn2[C@@H]1O[C@H](COP(=O)(O)OP(=O)(O)C(Cl)(Cl)P(=O)(O)O)[C@@H](O)[C@H]1O [cangrelor] | -12.28 | 700 µM and 640 µM | 900 |  |
| CC(C)c1nc(CN(C)C(=O)N[C@@H](CCN2CCOCC2)C(=O)N[C@H](CC[C@H](Cc2ccccc2)NC(=O)OCc2cncs2)Cc2ccccc2)cs1 [cobicistat] | -12.31 | ~2.1 µM and 2.1 µM | ~6.7 | -11.41 |
| Nc1ccn([C@H]2C[C@H](O)[C@@H](COP(=O)(O)OP(=O)(O)OP(=O)(O)OP(=O)(O)OC[C@H]3O[C@@H](n4ccc(=O)[nH]c4=O)[C@H](O)[C@@H]3O)O2)c(=O)n1 [DB04983, Denufosol] |  | 1400 µM and 1440 µM | 1300 |  |
